Measurements as given in PMC11500415, “Chemical inhibition of stomatal differentiation by perturbation of the master-regulatory bHLH heterodimer via an ACT-Like domain” (Nature Communications, 2024).
“And” between values parts separate entries of the source, which are not always exact repeats. Equal entries are not always repeated. Where two headings read alike, the source gives them in different places.

What was measured:
MUTE_ACTLE162A_E163A = molecular target: T1, MUTE_ACTLE162A_E163A (Arabidopsis thaliana, UniProt Q9M8K6, E162A/E163A); assay: BLI direct binding; parameters: species or system A. thaliana; details: for koff: read-out: kdis(1/s), MUTE_E162A_E163A on Anti-GST sensor
T1 construct: MUTE-ACTL (114-202); made in house; host or cells: E. coli BL21
T1 sequence (Q9M8K6 114-202 E162A/E163A): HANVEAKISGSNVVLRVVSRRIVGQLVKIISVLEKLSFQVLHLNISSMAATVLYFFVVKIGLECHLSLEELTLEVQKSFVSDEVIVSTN

SPCH_ACTL = molecular target: T2, SPCH_ACTL (Arabidopsis thaliana, UniProt Q700C7); assay: BLI direct binding; parameters: species or system A. thaliana
T2 construct: SPCH-ACTL (285-364); GST (N, cleaved yes); made in house; host or cells: E. coli BL21
T2 sequence (Q700C7 285-364): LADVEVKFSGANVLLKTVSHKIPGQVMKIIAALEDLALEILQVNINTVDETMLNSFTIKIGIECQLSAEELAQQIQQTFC

[1] = MUTE_E162A_E163A on Anti-GST sensor, Stomid 3.12 µM, rep-1, rep-2
[2] = MUTE_E162A_E163A on Anti-GST sensor, Stomid 6.25 µM, rep-1, rep-2
[3] = MUTE_E162A_E163A on Anti-GST sensor, Stomid 12.5 µM, rep-1, rep-2
[4] = MUTE_E162A_E163A on Anti-GST sensor, Stomid 25 µM, rep-1, rep-2
[5] = MUTE_E162A_E163A on Anti-GST sensor, Stomid 50 µM, rep-1, rep-2
[6] = MUTE_E162A_E163A on Anti-GST sensor, Stomid 100 µM, rep-1, rep-2
[7] = MUTE_E162A_E163A on Anti-GST sensor, Stomid 200 µM, rep-1, rep-2

O=C1C(c2ccccc2)=NC(NS(=O)(=O)c2ccccc2)(c2ccccc2)N1S(=O)(=O)c1ccccc1 (centres unmarked) [Stomidazolone]
Kd (MUTE_ACTLE162A_E163A; BLI steady state, MUTE_ACTL E162A_E163A, read-out: KD (SS)): 125 ± 12 µM
Kd (MUTE_ACTLE162A_E163A; BLI, MUTE_ACTL E162A_E163A, read-out: KD): 88.3 ± 5.5 µM
RMax (MUTE_ACTLE162A_E163A; [1]): 0.032 and 0.02
Response (MUTE_ACTLE162A_E163A; [1]): 0.0312 and 0.0195
Kd (MUTE_ACTLE162A_E163A; MUTE_E162A_E163A on Anti-GST sensor, Stomid 3.12 µM, rep-1, rep-2, read-out: KD): 86.2 µM
RMax (MUTE_ACTLE162A_E163A; [2]): 0.055 and 0.045
Req/Rmax(%) (MUTE_ACTLE162A_E163A; [2]): 86.2% and 99.9%
Response (MUTE_ACTLE162A_E163A; [2]): 0.053 and 0.041
kdis (MUTE_ACTLE162A_E163A; [2]): 0.25 s⁻¹
kon (MUTE_ACTLE162A_E163A; [2]): 2770 M⁻¹ s⁻¹
Kd (MUTE_ACTLE162A_E163A; MUTE_E162A_E163A on Anti-GST sensor, Stomid 6.25 µM, rep-1, rep-2, read-out: KD): 84.8 µM and 90.2 µM
RMax (MUTE_ACTLE162A_E163A; [3]): 0.07 and 0.08
Req/Rmax(%) (MUTE_ACTLE162A_E163A; [3]): 86.2% and 95.1%
Response (MUTE_ACTLE162A_E163A; [3]): 0.065 and 0.078
kobs (MUTE_ACTLE162A_E163A; [3]): 0.00218 s⁻¹ and 0.00344 s⁻¹
kon (MUTE_ACTLE162A_E163A; [3]): 2790 M⁻¹ s⁻¹
Kd (MUTE_ACTLE162A_E163A; MUTE_E162A_E163A on Anti-GST sensor, Stomid 12.5 µM, rep-1, rep-2, read-out: KD): 85.4 µM and 87.9 µM
Req/Rmax(%) (MUTE_ACTLE162A_E163A; [4]): 83.8% and 88.2%
kdis (MUTE_ACTLE162A_E163A; [4]): 0.251 s⁻¹
kobs (MUTE_ACTLE162A_E163A; [4]): 0.0028 s⁻¹ and 0.00329 s⁻¹
kon (MUTE_ACTLE162A_E163A; [4]): 2870 M⁻¹ s⁻¹
Kd (MUTE_ACTLE162A_E163A; MUTE_E162A_E163A on Anti-GST sensor, Stomid 25 µM, rep-1, rep-2, read-out: KD): 87.7 µM and 87.3 µM
RMax (MUTE_ACTLE162A_E163A; [5]): 0.145 and 0.18
Req/Rmax(%) (MUTE_ACTLE162A_E163A; [5]): 89.7% and 82.4%
Response (MUTE_ACTLE162A_E163A; [5]): 0.141 and 0.171
kobs (MUTE_ACTLE162A_E163A; [5]): 0.00431 s⁻¹ and 0.00272 s⁻¹
kon (MUTE_ACTLE162A_E163A; [5]): 2770 M⁻¹ s⁻¹
Kd (MUTE_ACTLE162A_E163A; MUTE_E162A_E163A on Anti-GST sensor, Stomid 50 µM, rep-1, rep-2, read-out: KD): 87.7 µM and 89 µM
RMax (MUTE_ACTLE162A_E163A; [6]): 0.256 and 0.23
Req/Rmax(%) (MUTE_ACTLE162A_E163A; [6]): 98.6% and 97.1%
Response (MUTE_ACTLE162A_E163A; [6]): 0.254 and 0.2296
kdis (MUTE_ACTLE162A_E163A; [6]): 0.248 s⁻¹
kobs (MUTE_ACTLE162A_E163A; [6]): 0.0129 s⁻¹ and 0.00842 s⁻¹
kon (MUTE_ACTLE162A_E163A; [6]): 2860 M⁻¹ s⁻¹
Kd (MUTE_ACTLE162A_E163A; MUTE_E162A_E163A on Anti-GST sensor, Stomid 100 µM, rep-1, rep-2, read-out: KD): 88.7 µM and 86.6 µM
RMax (MUTE_ACTLE162A_E163A; [7]): 0.275 and 0.3
Req/Rmax(%) (MUTE_ACTLE162A_E163A; [7]): 100%
Response (MUTE_ACTLE162A_E163A; [7]): 0.272 and 0.292
kobs (MUTE_ACTLE162A_E163A; [7]): 0.0343 s⁻¹
Kd (MUTE_ACTLE162A_E163A; MUTE_E162A_E163A on Anti-GST sensor, Stomid 200 µM, rep-1, rep-2, read-out: KD): 89.2 µM
koff (MUTE_ACTLE162A_E163A; Stomid 3.12 µM, rep-1, rep-2): 0.243 s⁻¹
koff (MUTE_ACTLE162A_E163A; Stomid 6.25 µM, rep-1, rep-2): 0.242 s⁻¹
koff (MUTE_ACTLE162A_E163A; Stomid 12.5 µM, rep-1, rep-2): 0.245 s⁻¹
koff (MUTE_ACTLE162A_E163A; Stomid 25 µM, rep-1, rep-2): 0.246 s⁻¹
koff (MUTE_ACTLE162A_E163A; Stomid 50 µM, rep-1, rep-2): 0.246 s⁻¹
koff (MUTE_ACTLE162A_E163A; Stomid 100 µM, rep-1, rep-2): 0.247 s⁻¹
koff (MUTE_ACTLE162A_E163A; Stomid 200 µM, rep-1, rep-2): 0.25 s⁻¹
kon (MUTE_ACTLE162A_E163A; read-out: kon(1/Ms), MUTE_E162A_E163A on Anti-GST sensor, Stomid 3.12 µM, rep-1, rep-2): 2830 M⁻¹ s⁻¹
kon (MUTE_ACTLE162A_E163A; read-out: kon(1/Ms), MUTE_E162A_E163A on Anti-GST sensor, Stomid 6.25 µM, rep-1, rep-2): 2850 M⁻¹ s⁻¹
kon (MUTE_ACTLE162A_E163A; read-out: kon(1/Ms), MUTE_E162A_E163A on Anti-GST sensor, Stomid 12.5 µM, rep-1, rep-2): 2870 M⁻¹ s⁻¹
kon (MUTE_ACTLE162A_E163A; read-out: kon(1/Ms), MUTE_E162A_E163A on Anti-GST sensor, Stomid 25 µM, rep-1, rep-2): 2800 M⁻¹ s⁻¹
kon (MUTE_ACTLE162A_E163A; read-out: kon(1/Ms), MUTE_E162A_E163A on Anti-GST sensor, Stomid 50 µM, rep-1, rep-2): 2810 M⁻¹ s⁻¹
kon (MUTE_ACTLE162A_E163A; read-out: kon(1/Ms), MUTE_E162A_E163A on Anti-GST sensor, Stomid 100 µM, rep-1, rep-2): 2780 M⁻¹ s⁻¹
kon (MUTE_ACTLE162A_E163A; read-out: kon(1/Ms), MUTE_E162A_E163A on Anti-GST sensor, Stomid 200 µM, rep-1, rep-2): 2800 M⁻¹ s⁻¹
Kd (SPCH_ACTL; BLI steady state, read-out: KD (SS)): 95.2 ± 3.8 µM
Kd (SPCH_ACTL; BLI, read-out: KD): 88.1 ± 1.1 µM
